The target in data set [1] is Insulin (Homo sapiens) (UniProt P01308). In words: Effect on insulin (unknown origin) amyloid fibril formation assessed as lag time in glycyl-glycine buffer at pH 4 measured after 45 hrs by thioflavin-T fluorescence assay.
Data set [2] is described as follows: Solubility of the compound in bis-tris propane at pH 6.5 by UPLC analysis. The conditions noted are these: bis-tris propane buffer. Type of data set: physicochemical.
Data set [3] can be described thus: Solubility of the compound in lactate at pH 4 by UPLC analysis. The conditions noted are these: lactate buffer. The format is physicochemical.
The test system of data set [4] is Rattus norvegicus. The experiment in a line: Reduction in food intake in Sprague-Dawley rat at 3 nmol/kg, sc administered as single dose measured after 24 to 48 hrs relative to control. The format is functional. Also on record: scale not given: the % may be the effect or the level left. The conditions noted are these: time 24-48 hrs.
Data set [5] can be described thus: Agonist activity at rat calcitonin receptor expressed in BHK-13 cells assessed as increase in intracellular cAMP concentration incubated for 25 mins by CRE luciferase reporter gene assay. The settings on record: BHK-13, 25 min. Type of data set: cell-based. On the technique in general: Reporter assays use an easily measured gene product as a stand-in for the process of interest.

Data set [6] is described as follows: Solubility of the compound in bis-tris propane at pH 7.5 by UPLC analysis. The format is physicochemical. The conditions noted are these: bis-tris propane buffer.
The nature of data set [7]: Solubility of the compound in lactate at pH 3 by UPLC analysis. Type of data set: physicochemical. The settings on record: lactate buffer.
The species entered for data set [8] is Homo sapiens. The experiment in a line: Ratio of EC50 for human calcitonin receptor expressed in BHK570 cells to EC50 for human AMY3R (CT+RAMP3) expressed in Hollex1 cells. Type of data set: cell-based.
A short description of data set [9]: Solubility of the compound in bis-tris propane at pH 8 by UPLC analysis. The conditions noted are these: bis-tris propane buffer. The format is physicochemical.
The target of data set [10] is Insulin (Homo sapiens) (UniProt P01308). The experiment in a line: Effect on insulin (unknown origin) amyloid fibril formation assessed as peptide recovery in glycyl-glycine buffer at pH 4 measured after 45 hrs by thioflavin-T fluorescence assay relative to control. Further details: concentration or dose not given beside the values.
The nature of data set [11]: Agonist activity at human AMY3R (CT+RAMP3) expressed in Hollex1 cells incubated for 3 hrs by luminescence assay. Type of data set: cell-based. The conditions noted are these: Hollex1, 3 h.
The species entered for data set [12] is Rattus norvegicus. The experiment in a line: Ratio of EC50 for rat calcitonin receptor expressed in BHK-13 cells to EC50 for rat AMY3R (CT+RAMP3) expressed in tk-ts13 cells. The format is cell-based.
Data set [13] can be described thus: Agonist activity at human calcitonin receptor expressed in BHK570 cells assessed as increase in intracellular cAMP concentration incubated for 3 hrs in absence of albumin by CRE luciferase reporter gene assay. The conditions noted are these: BHK570, 3 h. Type of data set: cell-based.
The nature of data set [14]: Solubility of the compound in lactate at pH 5 by UPLC analysis. The format is physicochemical. The conditions noted are these: lactate buffer.
The nature of data set [15]: Solubility of the compound in bis-tris propane at pH 6 by UPLC analysis. Type of data set: physicochemical. The settings on record: bis-tris propane buffer.
Data set [16] in a line: Solubility of the compound in bis-tris propane at pH 7 by UPLC analysis. Type of data set: physicochemical. The settings on record: bis-tris propane buffer.
For data set [17], the system named is Rattus norvegicus. In words: Reduction in food intake in Sprague-Dawley rat at 3 nmol/kg, sc administered as single dose measured upto 24 hrs relative to control. The conditions noted are these: time hrs <=24. Further details: scale not given: the % may be the effect or the level left. The format is functional.
A short description of data set [18]: Agonist activity at rat AMY3R (CT+RAMP3) expressed in tk-ts13 cells assessed as increase in intracellular cAMP level incuabted for 25 mins by CRE luciferase reporter gene assay. The format is cell-based. The conditions noted are these: tk-ts13, 25 min.

As usually defined, the solubility is the concentration that dissolves in the medium under given conditions. As a reminder, the EC50 is the concentration that produces a half-maximal response.

≈ marks a conversion by molar mass, not a printed value. *1 amine or outer side, *2 acyl side, *3 side chain or, on linkers, in order; H or OH if unused. Where a SMILES comes first, the peptide text is derived from it. Bridges are numbered along the chain shown (N, C = ends). The star is where a group is joined. C20 diacid = O=C(O)CCCCCCCCCCCCCCCCCCC(=O)*; γGlu = O=C(O)[C@H](CCC(=O)[*:2])N[*:1]

Chain of Insulin (Homo sapiens) (P01308 whole entry): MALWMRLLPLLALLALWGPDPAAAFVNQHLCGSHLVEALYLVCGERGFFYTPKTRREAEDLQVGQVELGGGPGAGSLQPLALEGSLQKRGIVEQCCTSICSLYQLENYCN

For `CC[C@H](C)[C@H](NC(=O)[C@@H]1CCCN1C(=O)CNC(=O)[C@H](Cc1ccccc1)NC(=O)[C@H](CC(N)=O)NC(=O)[C@H](CC(N)=O)NC(=O)[C@H](CO)NC(=O)[C@H](CO)NC(=O)[C@H](Cc1cnc[nH]1)NC(=O)[C@H](Cc1cnc[nH]1)NC(=O)[C@H](CC(C)C)NC(=O)[C@H](Cc1ccccc1)NC(=O)[C@H](CCC(=O)O)NC(=O)[C@H](C)NC(=O)[C@H](CC(C)C)NC(=O)[C@H](CCCNC(=N)N)NC(=O)[C@H](CCC(N)=O)NC(=O)[C@@H](NC(=O)[C@H](C)NC(=O)[C@@H]1CSSC[C@H](NC(=O)[C@H](CCCNC(=N)N)NC(=O)CC[C@H](NC(=O)CC[C@H](NC(=O)CCCCCCCCCCCCCCCCCCC(=O)O)C(=O)O)C(=O)O)C(=O)N[C@@H](CC(N)=O)C(=O)N[C@@H]([C@@H](C)O)C(=O)N[C@@H](C)C(=O)N[C@@H]([C@@H](C)O)C(=O)N1)[C@@H](C)O)C(=O)N[C@@H](CC(C)C)C(=O)N1CCC[C@H]1C(=O)N1CCC[C@H]1C(=O)N[C@H](C(=O)N[C@@H](CC(N)=O)C(=O)N[C@H](C(=O)NCC(=O)N[C@@H](CO)C(=O)N[C@@H](CC(N)=O)C(=O)N[C@H](C(=O)N[C@@H](Cc1ccc(O)cc1)C(N)=O)[C@@H](C)O)C(C)C)[C@@H](C)O` ({C20 diacid-γGlu-γGlu}-RCNTATCATQRLAEFLHHSSNNFGPILPPTNVGSNTY-NH2; disulfide 2-7), the TIME in [1] is 2 h. Further, the solubility in [2], in data set [3], in data set [6], in data set [7], in data set [9] and in data set [14] was 200 µM (≈ 923 µg/mL) each time. Also, the solubility in data set [15] and in [16] was 200 µM (≈ 923 µg/mL) in each case. The figures for the Activity in data set [4], in data set [10] and in [17] were 39%, 0% and 46%, respectively. Moreover, the EC50 is 1.34 nM in data set [5], 0.129 nM in data set [11], 0.205 nM in data set [13] and 0.277 nM in data set [18]. The results for the Ratio EC50 in data set [8] and in data set [12] were 2 and 5, respectively.

Take `CC[C@H](C)[C@H](NC(=O)[C@@H]1CCCN1C(=O)CNC(=O)[C@H](Cc1ccccc1)NC(=O)[C@H](CC(N)=O)NC(=O)[C@H](CC(N)=O)NC(=O)[C@H](CO)NC(=O)[C@H](CO)NC(=O)[C@H](Cc1c[nH]cn1)NC(=O)[C@H](CCCNC(=N)N)NC(=O)[C@H](CC(C)C)NC(=O)[C@H](Cc1ccccc1)NC(=O)[C@H](CCC(=O)O)NC(=O)[C@H](C)NC(=O)[C@H](CC(C)C)NC(=O)[C@H](CCCNC(=N)N)NC(=O)[C@H](CCC(N)=O)NC(=O)[C@@H](NC(=O)[C@H](C)NC(=O)[C@@H]1CSSC[C@H](NC(=O)[C@H](CCCCN)NC(=O)CC[C@H](NC(=O)CCCCCCCCCCCCCCCCCCC(=O)O)C(=O)O)C(=O)N[C@@H](CC(N)=O)C(=O)N[C@@H]([C@@H](C)O)C(=O)N[C@@H](C)C(=O)N[C@@H]([C@@H](C)O)C(=O)N1)[C@@H](C)O)C(=O)N[C@@H](CC(C)C)C(=O)N1CCC[C@H]1C(=O)N1CCC[C@H]1C(=O)N[C@H](C(=O)N[C@@H](CC(N)=O)C(=O)N[C@H](C(=O)NCC(=O)N[C@@H](CO)C(=O)N[C@@H](Cc1cnc[nH]1)C(=O)N[C@H](C(=O)N[C@@H](Cc1ccc(O)cc1)C(N)=O)[C@@H](C)O)C(C)C)[C@@H](C)O` ({C20 diacid-γGlu}-KCNTATCATQRLAEFLRHSSNNFGPILPPTNVGSHTY-NH2; disulfide 2-7): the TIME in data set [1] came out at 45 h. Further, the solubility in data set [2] worked out at 200 µM (≈ 900 µg/mL); in [3] it was 200 µM (≈ 900 µg/mL); in [7], 200 µM (≈ 900 µg/mL); in [9] it was 80 µM (≈ 360 µg/mL); in [14] it was 200 µM (≈ 900 µg/mL); in [15], 200 µM (≈ 900 µg/mL). This compound returned a solubility in data set [16] of 200 µM (≈ 900 µg/mL). Further, the Activity in data set [4] amounted to 0%; in [10], 100%; in data set [17] it was 17%. Moreover, the EC50 amounted to 2.54 nM in data set [5], 0.111 nM in data set [11], 0.379 nM in data set [13] and 0.49 nM in data set [18]. Besides, the Ratio EC50 in [8] is 3; in data set [12], 5.

As to `CC(C)C[C@H](NC(=O)[C@H](CCCNC(=N)N)NC(=O)[C@H](CCC(N)=O)NC(=O)[C@@H](NC(=O)[C@H](C)NC(=O)[C@@H]1CSSC[C@H](NC(=O)[C@H](Cc2cnc[nH]2)NC(=O)CC[C@H](NC(=O)CCCCCCCCCCCCCCCCCCC(=O)O)C(=O)O)C(=O)N[C@@H](CC(N)=O)C(=O)N[C@@H]([C@@H](C)O)C(=O)N[C@@H](C)C(=O)N[C@@H]([C@@H](C)O)C(=O)N1)[C@@H](C)O)C(=O)N[C@@H](C)C(=O)N[C@@H](CCC(=O)O)C(=O)N[C@@H](Cc1ccccc1)C(=O)N[C@@H](CC(C)C)C(=O)N[C@@H](Cc1cnc[nH]1)C(=O)N[C@@H](CCCNC(=N)N)C(=O)N[C@@H](CO)C(=O)N[C@@H](CO)C(=O)N[C@@H](CC(N)=O)C(=O)N[C@@H](CC(N)=O)C(=O)N[C@@H](Cc1ccccc1)C(=O)NCC(=O)N[C@@H](C)C(=O)N1CCC[C@H]1C(=O)N[C@@H](CC(C)C)C(=O)N[C@@H](CO)C(=O)N[C@@H](CO)C(=O)N[C@H](C(=O)N[C@@H](CC(N)=O)C(=O)N[C@H](C(=O)NCC(=O)N[C@@H](CO)C(=O)N[C@@H](CC(N)=O)C(=O)N[C@H](C(=O)N[C@@H](Cc1ccc(O)cc1)C(N)=O)[C@@H](C)O)C(C)C)[C@@H](C)O` ({C20 diacid-γGlu}-HCNTATCATQRLAEFLHRSSNNFGAPLSSTNVGSNTY-NH2; disulfide 2-7), in data set [1], the TIME turned out to be 14 h. Besides, the solubility in data set [2] was 4 µM (≈ 17.7 µg/mL); in data set [7], 200 µM (≈ 884 µg/mL); in data set [16], 7 µM (≈ 31 µg/mL). For the same compound, the Ratio EC50 in data set [8] came to 2. Moreover, the Activity in data set [10] was determined as 0%. Also, the EC50 in data set [11] is 0.107 nM; in data set [13] it was 0.218 nM.

Regarding `CC[C@H](C)[C@H](NC(=O)[C@@H]1CCCN1C(=O)CNC(=O)[C@H](Cc1ccccc1)NC(=O)[C@H](CC(N)=O)NC(=O)[C@H](CC(N)=O)NC(=O)[C@H](CO)NC(=O)[C@H](CO)NC(=O)[C@H](Cc1cnc[nH]1)NC(=O)[C@H](Cc1cnc[nH]1)NC(=O)[C@H](CC(C)C)NC(=O)[C@H](Cc1ccccc1)NC(=O)[C@H](CCC(=O)O)NC(=O)[C@H](C)NC(=O)[C@H](CC(C)C)NC(=O)[C@H](CCCNC(=N)N)NC(=O)[C@H](CCC(N)=O)NC(=O)[C@@H](NC(=O)[C@H](C)NC(=O)[C@@H]1CSSC[C@H](NC(=O)[C@H](CCC(=O)O)NC(=O)CC[C@H](NC(=O)CCCCCCCCCCCCCCCCCCC(=O)O)C(=O)O)C(=O)N[C@@H](CC(N)=O)C(=O)N[C@@H]([C@@H](C)O)C(=O)N[C@@H](C)C(=O)N[C@@H]([C@@H](C)O)C(=O)N1)[C@@H](C)O)C(=O)N[C@@H](CC(C)C)C(=O)N1CCC[C@H]1C(=O)N1CCC[C@H]1C(=O)N[C@H](C(=O)N[C@@H](CC(N)=O)C(=O)N[C@H](C(=O)NCC(=O)N[C@@H](CO)C(=O)N[C@@H](CC(N)=O)C(=O)N[C@H](C(=O)N[C@@H](Cc1ccc(O)cc1)C(N)=O)[C@@H](C)O)C(C)C)[C@@H](C)O` ({C20 diacid-γGlu}-ECNTATCATQRLAEFLHHSSNNFGPILPPTNVGSNTY-NH2; disulfide 2-7), in data set [1], the TIME was found to be 3 h. The solubility in [2], in data set [3], in data set [6], in [7], in data set [9] and in data set [15] was 200 µM (≈ 891 µg/mL) in each case. Besides, the solubility in data set [16] is 200 µM (≈ 891 µg/mL). Moreover, the results for the Activity in data set [4], in data set [10] and in data set [17] were 5%, 0% and 15%, respectively. The Ratio EC50 in data set [8] came out at 2. Moreover, the EC50 was 0.377 nM in [11] and 0.657 nM in data set [13].

Values taken from ChEMBL document CHEMBL4842340, “Development of Cagrilintide, a Long-Acting Amylin Analogue” (J Med Chem, 2021).
